The values below come from the supplement of paper PMC11003180.

What all share (assay): drug sensitivity score (DSS) from 5-dose viability curve (DSS (area-based score, 0 = no response)); higher = more sensitive (stronger viability inhibition); extreme values may be limits of the assay
In test [1] the test system is MDCK wild-type + doxycycline. As to conditions: doxycycline: 10 ng/mL; 72 h. In outline:
(§1)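 Parental MDCK cells and MDCK cells with a doxycycline-inducible transgene were both grown with doxycycline at 10 ng/mL in the medium before plating, then dispensed at 2000 cells/well into 384-well plates pre-spotted with an oncology library of 528 drugs at five doses (1-10,000 nM). After 72 h at 37 °C, CellTiter-Glo luminescence was recorded and scaled on each plate between vehicle and positive controls. This scaled signal served as the viability readout, and drug sensitivity scores were derived from dose-response curve fits in the Breeze pipeline.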

Test [2] relates to MDCK p60AmotL2-inducible + doxycycline (p60AmotL2 expressing). The following applies: doxycycline: 10 ng/mL; 72 h. In short, it runs like this:
as §1

In test [3] the test system is MDCK wild-type - doxycycline. The following applies: doxycycline: none; 72 h. In short, it runs like this: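 For 72 h at 37 °C, parental MDCK cells (no doxycycline, 2000 cells/well) were incubated on 384-well plates pre-spotted with 528 oncology drugs at five doses from 1 to 10,000 nM. CellTiter-Glo luminescence served as the viability readout, scaled per plate between vehicle and positive controls. The Breeze pipeline then fitted dose-response curves to yield drug sensitivity scores.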

The structures appear in SMILES notation.

On to `COc1cc2/c(=N/c3ccc(Br)cc3F)nc[nH]c2cc1OCC1CCN(C)CC1` [Vandetanib], for which the drug sensitivity score worked out at 0 in test [1], 4.6 in test [2] and 0 in test [3].

In the case of `CCC/C=C/C=C/C(=O)O[C@H]1/C(=C/C(=O)OC)C[C@H]2C[C@H]([C@@H](C)O)OC(=O)C[C@H](O)C[C@@H]3C[C@H](OC(C)=O)C(C)(C)[C@](O)(C[C@@H]4C/C(=C/C(=O)OC)C[C@H](/C=C/C(C)(C)[C@]1(O)O2)O4)O3` [Bryostatin 1], the drug sensitivity score in test [1], in test [2] and in test [3] was 0 in each case.

As for `CCCCNc1ncc(C(=O)NCc2ccc(-n3ccnc3)cc2)c(NC2CCC(O)CC2)n1` (stereo unspecified) [UNC2881], the drug sensitivity score in test [1] worked out at 0; in test [2] it was 1.9; in test [3] it was 0.

For `CC(C)Oc1ccc(-c2nn([C@@H](C)c3oc4ccc(F)cc4c(=O)c3-c3cccc(F)c3)c3ncnc(N)c23)cc1F` [TGR-1202], the drug sensitivity score turned out to be 2.1 in test [1], 3.9 in test [2] and 0 in test [3].

For `O=C(O)c1ccc(O)c2ncccc12` [IOX-1], the drug sensitivity score in test [1] was determined as 1.6; in test [2] it was 1.7; in test [3], 1.4.

Regarding `CC(C)C[C@@H](C(=O)N[C@H](C(=O)OC1CCCC1)c1ccccc1)[C@H](O)C(=O)NO` [Tosedostat], the drug sensitivity score in test [1] was 1.7; in test [2], 2.5; in test [3], 1.4.

Turning to `CCS(=O)(=O)Nc1ccc(Oc2ccc(F)cc2F)c(-c2cn(C)c(=O)c3[nH]ccc23)c1` [Mivebresib], the drug sensitivity score was 23.8 in test [1], 29.9 in test [2] and 18.7 in test [3].

Regarding `O=C(NCc1ccncc1)C12CC3CC(C1)CC(c1ccc(Cl)cc1)(C3)C2`, the drug sensitivity score in test [1] worked out at 4.3; in test [2], 6.4; in test [3] it was 2.4.

Take `COc1cccc(OCCCN)c1-c1cc(Nc2cnc(C#N)cn2)n[nH]1` [Prexasertib]: the drug sensitivity score in test [1] is 2.2; in test [2], 3.5; in test [3], 0.8.

Turning to `COc1cc2c(cc1-c1c(C)noc1C)ncc1[nH]c(=O)n([C@H](C)c3ccccn3)c12` [I-BET151], the drug sensitivity score in test [1] is 4.6; in test [2], 10.9; in test [3], 0.6.

On to `CN1CC[C@H](c2c(O)cc(O)c3c(=O)cc(-c4ccccc4Cl)oc23)[C@H](O)C1` [Alvocidib], for which the values for the drug sensitivity score in test [1], in test [2] and in test [3] were 20.9, 18.3 and 21.5, respectively.

Turning to `COC(=O)C[C@](O)(CCCC(C)(C)O)C(=O)O[C@@H]1C(OC)=C[C@]23CCCN2CCc2cc4c(cc2[C@H]13)OCO4` [Omacetaxine], the drug sensitivity score in test [1] worked out at 32.4; in test [2] it was 33.6; in test [3] it was 33.5.

In the case of `NC(=O)Nc1cc(-c2cccc(F)c2)sc1C(=O)N[C@H]1CCCNC1` [AZD7762], the drug sensitivity score amounted to 0.2 in test [1], 0.3 in test [2] and 0 in test [3].

For `NS(=O)(=O)OC[C@@H]1C[C@@H](n2ccc3c(N[C@H]4CCc5ccccc54)ncnc32)C[C@@H]1O` [Pevonedistat], the drug sensitivity score in test [1] is 9.7; in test [2] it was 11.7; in test [3], 9.

With `Cc1cc(Nc2cc(N3CCN(C)CC3)nc(Sc3ccc(NC(=O)C4CC4)cc3)n2)n[nH]1` [Tozasertib], the drug sensitivity score in test [1] is 4.2; in test [2], 8.6; in test [3], 1.4.

Consider `C[C@@]1(C(=O)Nc2ccc(F)nc2)CCCN1c1nc(Nc2cc(C3CC3)n[nH]2)c2cccn2n1`, for which the values for the drug sensitivity score in test [1], in test [2] and in test [3] were 8.5, 12.6 and 0, respectively.

In the case of `O=C(c1ccc(OCCN2CCCCC2)cc1)c1c(-c2ccc(O)cc2)sc2cc(O)ccc12` [Raloxifene], the figures for the drug sensitivity score in test [1], in test [2] and in test [3] were 5.2, 6.1 and 5.2, respectively.

Regarding `C[C@]12CC[C@@H]3c4ccc(O)cc4C[C@@H](CCCCCCCCC[S+]([O-])CCCC(F)(F)C(F)(F)F)[C@H]3[C@@H]1CC[C@@H]2O` (stereo partly specified) [Fulvestrant], the drug sensitivity score in test [1], in test [2] and in test [3] was 0 throughout.

On to `COc1cc2c(NC3CCN(C(C)C)CC3)nc(N3CCC(F)(F)CC3)nc2cc1OCCCN1CCCC1` [UNC0642], for which the drug sensitivity score in test [1] came to 0; in test [2], 0.2; in test [3], 0.

As to `CN(CC(=O)N(Cc1ccc(C2CCCCC2)cc1)c1ccc(C(=O)O)cc1)S(=O)(=O)c1c(F)c(F)c(F)c(F)c1F` [SH-4-54], the drug sensitivity score came out at 3.9 in test [1], 3.7 in test [2] and 5.1 in test [3].

Take `Oc1ccc2c(c1)CC[C@H](c1ccccc1)[C@@H]2c1ccc(OCCN2CCCC2)cc1` [Lasofoxifene]: the drug sensitivity score in test [1], in test [2] and in test [3] was 0 in each case.

On to `COc1cc2ncnc(Nc3ccc(F)c(Cl)c3)c2cc1NC(=O)/C=C/CN1CCCCC1` [Dacomitinib], for which the drug sensitivity score was 8.4 in test [1], 19.3 in test [2] and 5.3 in test [3].

Regarding `FC(F)c1nc2ccccc2n1-c1nc(N2CCOCC2)nc(N2CCOCC2)n1` [ZSTK474], the results for the drug sensitivity score in test [1], in test [2] and in test [3] were 7.2, 10.3 and 4.7, respectively.

Regarding `Cc1c(F)cc(C(=O)NC2CC2)cc1-c1ccc(C(=O)NCC(C)(C)C)cn1` [Losmapimod], the drug sensitivity score in test [1], in test [2] and in test [3] was 0 each time.

Consider `COCC[n+]1c2c(n(Cc3cnccn3)c1C)C(=O)c1ccccc1C2=O` [Sepantronium bromide], for which the drug sensitivity score in test [1] is 30.1; in test [2] it was 34.3; in test [3], 26.6.

Regarding `O=C(/C=C\n1cnc(-c2cc(C(F)(F)F)cc(C(F)(F)F)c2)n1)NNc1ccccn1` [Verdinexor], the drug sensitivity score in test [1] turned out to be 10.6; in test [2], 10.1; in test [3] it was 9.2.

On to `O=C(Nc1ccc(OC(F)(F)Cl)cc1)c1cnc(N2CC[C@@H](O)C2)c(-c2cc[nH]n2)c1` [Asciminib], for which the drug sensitivity score in test [1], in test [2] and in test [3] was 0 in each case.

In the case of `CNC(=O)c1ccc(N2C(=S)N(c3cnc(C#N)c(C(F)(F)F)c3)C(=O)C23CCC3)cc1F` [Apalutamide], the drug sensitivity score in test [1], in test [2] and in test [3] was 0 throughout.

For the molecule `CN1CC[C@@H](NC(=O)Nc2ccc(C#N)cc2)C[C@@H]1c1nc2ccccc2[nH]1` [Glasdegib], the drug sensitivity score in test [1], in test [2] and in test [3] was 0 throughout.

As to `Cn1cnc2c(F)c(Nc3ccc(Br)cc3Cl)c(C(=O)NOCCO)cc21` [Selumetinib], the figures for the drug sensitivity score in test [1], in test [2] and in test [3] were 4.1, 10.1 and 0.9, respectively.

With `CNC(=O)[C@@H](NC(=O)[C@H](CC(C)C)[C@H](O)C(=O)NO)C(C)(C)C` [Marimastat], the drug sensitivity score in test [1] worked out at 0.1; in test [2] it was 3.5; in test [3], 0.

As for `C=CC(=O)Nc1cccc(Nc2nc(Nc3ccc(N4CCN(C(C)=O)CC4)cc3OC)ncc2C(F)(F)F)c1` [Rociletinib], the drug sensitivity score in test [1] came to 6.7; in test [2] it was 10.4; in test [3] it was 6.9.

In the case of `C1=N/C2=N/c3ccc(OCCN4CCCC4)c(c3)COC/C=C/COCc3cccc(c3)C(=C1)N2` [Pacritinib], the drug sensitivity score in test [1] was determined as 9.3; in test [2] it was 10; in test [3] it was 10.1.

For `C=C1C[C@@H]2[C@H](CC[C@]3(C)C(=O)CC[C@@H]23)[C@@]2(C)C=CC(=O)C=C12` [Exemestane], the drug sensitivity score in test [1], in test [2] and in test [3] was 0 each time.

Regarding `OC[C@H]1O[C@@H](n2cnc3c2N=CNC[C@H]3O)C[C@@H]1O` [Pentostatin], the drug sensitivity score in test [1], in test [2] and in test [3] was 0 throughout.

`COC(=O)c1ccc([C@H]2c3[nH]c4ccccc4c3C[C@H](C(=O)OC)N2C(=O)CCl)cc1` [RSL3]: the drug sensitivity score in test [1], in test [2] and in test [3] was 0 throughout.

On to `CC(C)(C)NC(=O)[C@H]1CC[C@H]2[C@@H]3CC[C@H]4NC(=O)C=C[C@]4(C)[C@H]3CC[C@]12C` [Finasteride], for which the drug sensitivity score in test [1], in test [2] and in test [3] was 0 in each case.
